This note sets out measurements from the supplement of paper PMC10307832.

Experiment in all cases: relative viability (nuclei count vs DMSO), 5 days (fraction); higher = more cells survive
Compound in test [1]: O=c1ncccn1[C@@H]1O[C@H](CO)[C@@H](O)[C@H]1O [Zebularine] + CC(=O)Nc1cccc(-n2c(=O)n(C3CC3)c(=O)c3c(Nc4ccc(I)cc4F)n(C)c(=O)c(C)c32)c1 [Trametinib] (partner 0.02 µM)
The procedure, abridged: (§1)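 After 5 days of treatment, lung cancer cells in 1536-well plates were fixed and stained in a single step (final 0.05% Triton X-100, 1% formaldehyde, 1 ug/ml Hoechst) and their nuclei counted on 4× images. Treatment had been applied by pin tool the day after seeding as one drug alone or as a fixed anchor-drug dose with five library-drug doses (not always all listed) in √10 steps. Relative viability is the nuclei count of treated wells divided by that of vehicle wells, and values are medians of duplicate plates.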

Compound in test [2]: CC(C)CCN1c2nc(Nc3cc(F)c(O)c(F)c3)ncc2N(C)C(=O)C1C [BI-D1870] + N=C(N)NC(=N)NCCc1ccccc1 [Phenformin] (partner 250 µM)
The method in brief: as §1

Compound in test [3]: O=c1ncccn1[C@@H]1O[C@H](CO)[C@@H](O)[C@H]1O [Zebularine] + O=C(CCCCCCC(=O)Nc1ccccc1)NO [Vorinostat] (partner 1 µM)
The method in brief: as §1

Compound in test [4]: O=c1ncccn1[C@@H]1O[C@H](CO)[C@@H](O)[C@H]1O [Zebularine] + CS(=O)(=O)N1CCN(Cc2cc3nc(-c4cccc5[nH]ncc45)nc(N4CCOCC4)c3s2)CC1 [Pictilisib] (partner 1 µM)
The procedure, abridged:
as §1

Consider NCI-H1944, for which the relative viability in test [1] (first compound 1 µM) amounted to 0.481; in test [1] (first compound 3.162 µM), 0.411; in test [1] (first compound 10 µM), 0.45; in test [1] (first compound 31.62 µM), 0.498; in test [1] (first compound 100 µM), 0.419; in test [2] (first compound 0.04 µM), 0.218. Besides, the relative viability in test [2] (first compound 0.1265 µM) was determined as 0.185; in test [2] (first compound 0.4 µM), 0.184; in test [2] (first compound 1.265 µM), 0.237; in test [2] (first compound 4 µM), 0.205; in test [3] (first compound 1 µM) it was 0.534; in test [3] (first compound 3.162 µM), 0.573. Moreover, the relative viability in test [3] (first compound 10 µM) amounted to 0.414; in test [3] (first compound 31.62 µM), 0.603; in test [3] (first compound 100 µM), 0.458; in test [4] (first compound 1 µM), 0.375; in test [4] (first compound 3.162 µM), 0.363; in test [4] (first compound 10 µM), 0.325. For the same cell line, the relative viability in test [4] (first compound 31.62 µM) was 0.41; in test [4] (first compound 100 µM) it was 0.347.
With NCI-H1975, the relative viability in test [1] (first compound 1 µM) was determined as 0.298; in test [1] (first compound 3.162 µM), 0.268; in test [1] (first compound 10 µM), 0.338; in test [1] (first compound 31.62 µM), 0.283; in test [1] (first compound 100 µM), 0.222; in test [2] (first compound 0.04 µM), 0.4. The relative viability in test [2] (first compound 0.1265 µM) came out at 0.37; in test [2] (first compound 0.4 µM), 0.422; in test [2] (first compound 1.265 µM) it was 0.426; in test [2] (first compound 4 µM), 0.313; in test [3] (first compound 1 µM) it was 0.731; in test [3] (first compound 3.162 µM), 0.728. Besides, the relative viability in test [3] (first compound 10 µM) turned out to be 0.465; in test [3] (first compound 31.62 µM) it was 0.556; in test [3] (first compound 100 µM), 0.321; in test [4] (first compound 1 µM), 0.305; in test [4] (first compound 3.162 µM), 0.313; in test [4] (first compound 10 µM), 0.291. For the same cell line, the relative viability in test [4] (first compound 31.62 µM) came out at 0.253; in test [4] (first compound 100 µM), 0.175.
Consider NCI-H1993, for which the relative viability in test [1] (first compound 1 µM) came to 0.55; in test [1] (first compound 3.162 µM) it was 0.506; in test [1] (first compound 10 µM), 0.51; in test [1] (first compound 31.62 µM), 0.574; in test [1] (first compound 100 µM), 0.367; in test [2] (first compound 0.04 µM) it was 0.482. For the same cell line, the relative viability turned out to be 0.403 in test [2] (first compound 0.1265 µM); 0.487 in test [2] (first compound 0.4 µM); 0.468 in test [2] (first compound 1.265 µM); 0.572 in test [2] (first compound 4 µM); 0.73 in test [3] (first compound 1 µM); 0.763 in test [3] (first compound 3.162 µM). Further, the relative viability was determined as 0.754 in test [3] (first compound 10 µM); 0.741 in test [3] (first compound 31.62 µM); 0.559 in test [3] (first compound 100 µM); 0.962 in test [4] (first compound 1 µM); 0.8 in test [4] (first compound 3.162 µM); 0.89 in test [4] (first compound 31.62 µM). Also, in test [4] (first compound 100 µM), the relative viability worked out at 0.847.
As for NCI-H2009, the relative viability worked out at 0.294 in test [1] (first compound 1 µM); 0.276 in test [1] (first compound 3.162 µM); 0.274 in test [1] (first compound 10 µM); 0.243 in test [1] (first compound 31.62 µM); 0.197 in test [1] (first compound 100 µM); 0.546 in test [2] (first compound 0.04 µM). In addition, the relative viability in test [2] (first compound 0.1265 µM) stood at 0.457; in test [2] (first compound 0.4 µM), 0.456; in test [2] (first compound 1.265 µM), 0.329; in test [2] (first compound 4 µM), 0.222; in test [3] (first compound 1 µM) it was 0.728; in test [3] (first compound 3.162 µM), 0.679. For the same cell line, the relative viability turned out to be 0.625 in test [3] (first compound 10 µM); 0.63 in test [3] (first compound 31.62 µM); 0.241 in test [3] (first compound 100 µM); 0.838 in test [4] (first compound 1 µM); 0.782 in test [4] (first compound 3.162 µM); 0.614 in test [4] (first compound 10 µM). Further, the relative viability in test [4] (first compound 31.62 µM) was 0.68; in test [4] (first compound 100 µM), 0.37.
NCI-H2023: the relative viability in test [1] (first compound 1 µM) came out at 0.595; in test [1] (first compound 3.162 µM), 0.636; in test [1] (first compound 10 µM), 0.367; in test [1] (first compound 31.62 µM) it was 0.523; in test [1] (first compound 100 µM), 0.308; in test [2] (first compound 0.04 µM), 0.487. The relative viability in test [2] (first compound 0.1265 µM) was determined as 0.367; in test [2] (first compound 0.4 µM), 0.408; in test [2] (first compound 1.265 µM), 0.416; in test [2] (first compound 4 µM), 0.308; in test [3] (first compound 1 µM) it was 0.946; in test [3] (first compound 3.162 µM) it was 0.561. The relative viability is 0.509 in test [3] (first compound 10 µM); 0.518 in test [3] (first compound 31.62 µM); 0.216 in test [3] (first compound 100 µM); 0.262 in test [4] (first compound 1 µM); 0.272 in test [4] (first compound 3.162 µM); 0.215 in test [4] (first compound 10 µM). The relative viability worked out at 0.272 in test [4] (first compound 31.62 µM) and 0.201 in test [4] (first compound 100 µM).
Turning to NCI-H2085, the relative viability in test [1] (first compound 1 µM) stood at 0.491; in test [1] (first compound 3.162 µM) it was 0.547; in test [1] (first compound 10 µM), 0.522; in test [1] (first compound 31.62 µM) it was 0.433; in test [1] (first compound 100 µM) it was 0.392; in test [2] (first compound 0.04 µM), 0.806. Moreover, the relative viability in test [2] (first compound 0.1265 µM) was 0.658; in test [2] (first compound 0.4 µM), 0.676; in test [2] (first compound 1.265 µM), 0.69; in test [2] (first compound 4 µM) it was 0.52; in test [3] (first compound 1 µM) it was 0.804; in test [3] (first compound 3.162 µM), 0.835. The relative viability in test [3] (first compound 10 µM) stood at 0.662; in test [3] (first compound 31.62 µM) it was 0.755; in test [3] (first compound 100 µM) it was 0.465; in test [4] (first compound 1 µM), 0.435; in test [4] (first compound 3.162 µM), 0.411; in test [4] (first compound 10 µM) it was 0.444. The results for the relative viability in test [4] (first compound 31.62 µM) and in test [4] (first compound 100 µM) were 0.461 and 0.343, respectively.
Turning to NCI-H2087, the relative viability in test [1] (first compound 1 µM) came out at 0.195; in test [1] (first compound 3.162 µM) it was 0.166; in test [1] (first compound 10 µM) it was 0.204; in test [1] (first compound 31.62 µM), 0.206; in test [1] (first compound 100 µM) it was 0.142; in test [2] (first compound 0.04 µM), 0.512. Further, the relative viability worked out at 0.532 in test [2] (first compound 0.1265 µM); 0.486 in test [2] (first compound 0.4 µM); 0.536 in test [2] (first compound 1.265 µM); 0.459 in test [2] (first compound 4 µM); 1.1 in test [3] (first compound 1 µM); 0.652 in test [3] (first compound 3.162 µM). In addition, the relative viability in test [3] (first compound 10 µM) was 0.285; in test [3] (first compound 31.62 µM) it was 0.667; in test [3] (first compound 100 µM) it was 0.303; in test [4] (first compound 1 µM), 0.92; in test [4] (first compound 3.162 µM) it was 0.703; in test [4] (first compound 10 µM) it was 0.583. The results for the relative viability in test [4] (first compound 31.62 µM) and in test [4] (first compound 100 µM) were 0.752 and 0.368, respectively.
